# Results as given in the supplement of paper PMC12613149.
# What was measured:
# [1] = reversed-phase LC retention time (C18, 15 min MeOH gradient); higher = more hydrophobic / later elution
# [2] = collision cross section (TIMS, N2 drift gas) of the primary ion; higher = larger gas-phase ion size
# [3] = ionization mode: ESI+, ion species: [M+H]+
# [4] = ionization mode: ESI-, ion species: [M-H]-
# [5] = ionization mode: ESI+, ion species: [M]+
Structure (SMILES),"reversed-phase LC retention time [1, 3]","reversed-phase LC retention time [1, 4]","collision cross section [2, 3]","collision cross section [2, 4]","reversed-phase LC retention time [1, 5]","collision cross section [2, 5]"
CCC(=O)O[C@]1(C(=O)SCF)[C@H](C)C[C@H]2[C@@H]3C[C@H](F)C4=CC(=O)C=C[C@]4(C)[C@@]3(F)[C@@H](O)C[C@@]21C [Fluticasone propionate],15.2 min,15.7 min,212.76 Å²,209.59 Å²,–,–
c1ccc2sc(NC3CCCCC3)nc2c1 [N-Cyclohexyl-2-benzothiazole-amine],14.1 min,15.9 min,155.21 Å²,157 Å²,–,–
CCCN(CCOc1c(Cl)cc(Cl)cc1Cl)C(=O)NC=O,15.7 min,–,174.76 Å²,–,–,–
N#Cc1nn(-c2c(Cl)cc(C(F)(F)F)cc2Cl)c(N)c1S(=O)C(F)(F)F (configuration not stated) [Fipronil],–,15.6 min,–,177.2 Å²,–,–
CC1(C)CCC(Cc2ccc(Cl)cc2)C1(O)Cn1cncn1 (configuration not stated) [Metconazole],15.8 min,–,170.17 Å²,–,–,–
Clc1ccc2c(c1)CCc1cccnc1C2=C1CCNCC1 [Desloratadine],11.7 min,–,176.94 Å²,–,–,–
CC[C@H]1CCC[C@H](O[C@H]2CC[C@H](N(C)C)[C@@H](C)O2)[C@@H](C)C(=O)C2=C[C@@H]3[C@@H](C=C[C@@H]4C[C@@H](O[C@@H]5O[C@@H](C)[C@H](OC)[C@@H](OC)[C@H]5OC)C[C@@H]34)[C@@H]2CC(=O)O1 [Spinosyn A],15.9 min,–,267.49 Å²,–,–,–
CC(C)CC(C)CC(C)c1ccc(O)cc1 (stereo not drawn) [Nonylphenol_isomers],–,17.9 min,–,161.38 Å²,–,–
CCCCCCCCCCCC(=O)NCCC[N+](C)(C)CC(=O)O [Lauramidopropylbetaine],–,–,–,–,15.9 min,200.11 Å²
CC(=O)OCC(=O)[C@@]1(O)CC[C@H]2[C@@H]3CCC4=CC(=O)CC[C@]4(C)[C@@]3(F)[C@@H](O)C[C@@]21C [Fludrocortisone-21-acetate],–,13.6 min,–,197.85 Å²,–,–
CCCN(CCOc1c(Cl)cc(Cl)cc1Cl)C(=O)n1ccnc1 [Prochloraz],15.7 min,–,183.61 Å²,–,–,–
CCCCc1ncc(/C=C(\Cc2cccs2)C(=O)O)n1Cc1ccc(C(=O)O)cc1 [Eprosartan],11.2 min,10 min,206.28 Å²,198.36 Å²,–,–
CCCCN(CCCC)CCCC [Tributylamine],10.1 min,–,148.84 Å²,–,–,–
Clc1cccc(Cl)c1NC1=NCCN1 [Clonidine],6.83 min,9.84 min,145.06 Å²,145.07 Å²,–,–
"O=C(O)c1ccc(Cl)cc1Cl [2,4-Dichlorobenzoic acid]",–,6.78 min,–,124.87 Å²,–,–
CCCOP(=O)(OCCC)OCCC [Tripropyl phosphate],14.2 min,–,149 Å²,–,–,–
O=C1NC(=O)C(c2ccccc2)(c2ccccc2)N1 [Phenytoin],11.9 min,–,162.42 Å²,–,–,–
Fc1ccc(Oc2ccnc3cc(Cl)cc(Cl)c23)cc1 [Quinoxyfen],17.1 min,–,164.99 Å²,–,–,–
Cn1cc(C(=O)Nc2ccccc2-c2cc(F)c(F)c(F)c2)c(C(F)F)n1 [Fluxapyroxad],14.4 min,14.7 min,178.14 Å²,180.37 Å²,–,–
Nc1nc(NC2CC2)c2ncn([C@H]3C=C[C@@H](CO)C3)c2n1 [Abacavir],8 min,–,168.31 Å²,–,–,–
O=c1cc(-c2ccc(O)cc2)oc2cc(O[C@@H]3O[C@H](CO)[C@@H](O)[C@H](O)[C@H]3O[C@@H]3OC[C@](O)(CO)[C@H]3O)cc(O)c12 [Apiin],10.3 min,10.1 min,232.7 Å²,224.84 Å²,–,–
"Oc1cc(-c2ccc(Cl)cc2)ccc1Cl [3-Hydroxy-4,4'-dichlorobiphenyl]",–,16.1 min,–,149.63 Å²,–,–
Nc1nc2c(ncn2COCCO)c(=O)[nH]1 [Acyclovir],3.16 min,3.13 min,148.26 Å²,146.78 Å²,–,–
COc1cc(C)c(C(=O)c2c(OC)ccc(Br)c2C)c(OC)c1OC [Metrafenone],15.9 min,–,184.27 Å²,–,–,–
O=C(NC(=O)c1c(F)cccc1F)Nc1ccc(Oc2ccc(C(F)(F)F)cc2Cl)cc1F [Flufenoxuron],17.4 min,17.8 min,204.54 Å²,215.68 Å²,–,–
CN(C)CCOC(c1ccccc1)c1ccccc1 [Diphenhydramine],11.6 min,–,162.95 Å²,–,–,–
O=C(O)C(F)(F)C(F)(F)C(F)(F)C(F)(F)C(F)(F)C(F)(F)C(F)(F)C(F)(F)C(F)(F)C(F)(F)F [Perfluoroundecanoic acid],–,16.5 min,–,182.71 Å²,–,–
CC(C)(C)Nc1nc(N)nc(Cl)n1 [Desethylterbutylazine],12 min,–,144.23 Å²,–,–,–
